Source: patent US10729741B2, “Methods of treating burns with i.v. cP12 in a window from 2 to 6 hours after injury” (NeoMatrix Therapeutics Inc., priority 2017, dated 2020)
Where two headings read alike, the source gives them in different places. Values belong to the molecule of their own block, whether it stands above or below them. Residues, ends and D or L forms follow the SMILES beside them.

Columns and labels:
porcine burns = assay: porcine vertical injury progression burn model, wound closure by H&E histology; type: in vivo, pig; settings: for percent wounds closed (100% re-epithelialization) at 14 d post-burn: compiled data
Procedure: For a pathobiology proof-of-principle study we used a validated porcine vertical injury progression burn model (Singer A J, Hirth D, McClain S A, Crawford L, Lin F, and Clark R A. Validation of a vertical progression porcine burn model. J Burn Care Res. 2011; 32(6):638-46). In short, while under general anaesthesia, twenty burns were created on the dorsal skin of four outbred female Yorkshire pigs (˜25 kg) using a 2.5×2.5×7.5 cm, 150 gram aluminum bar equilibrated in an 80° C. water bath and applied for 20 s. The application of the 80° C. aluminum bar caused burn injury a little beyond mid-dermis but often progressed to full-thickness within 3-7 days. All burns were treated with petrolatum, and protected with Tegaderm. In some pigs, a fibronectin (FN)-derived peptide (P12) (SEQ ID NO:1) was infused over 30 min at 1, 2, and 4 h post-burn using doses of 0.003, 0.01 or 0.03 mg/kg. The infused P12 peptide (SEQ ID NO:1) was cyclized (cP12) (SEQ ID NO:2) to prevent exopeptidase digestion from amino- and carboxy-peptidases, which are common in the blood and skin.
Tissue specimens taken at 14 days after a 30 min infusion of cP12 (SEQ ID NO:2) doses at 0.003, 0.01, 0.03 or 0.1 mg/kg, where infusions began at 1, 4, 8, 12 and 24 h post-burn, have been fixed, stained with hematoxylin and eosin (H&E), and determined whether the surface of the wound was 100% re-epithelialized, i.e. wound closure obtained. The percent wounds totally re-epithelialized at each cP12 (SEQ ID NO:2) dose and each post-burn time of onset of a 30 min infusion are recorded in Table 1. The number of pigs used for each dose and time is denoted in Table 1 by parentheses. Each pig while under general anesthesia had 20 burn wounds administered on the back by a 2.5×2.5 aluminum bar heated to 80° C. and applied to the skin for 20 sec.
The effect of cP12 (SEQ ID NO:2) doses at 0.003, 0.01, 0.03 or 0.1 mg/kg at 4 h post-burn 30 min-infusion on percent wounds closed at 14d post-burn the 5 experiments performed under these conditions are shown in Table 2. The dates indicate the onset on each experiment, i.e. the date the pigs receive burns.

[1] = anaphylactoid response with 30 min infusion in pig models; type: in vivo
Procedure: Depending on the animal type, cP12 (SEQ ID NO:2) (or linear P12. SEQ ID NO:1) can induce an anaphylactoid response at 2.5 to 10 mg/kg given as an iv bolus or even a rapid infusion. This reaction is less likely with a slower infusion.

mesenchymal cell = settings: in solution; intrinsically and synergistically with growth factors, especially PDGF-BB; cited from earlier work
[2] = test system: adult human dermal fibroblasts (AHDF); settings: oxidative and cytokine stress and/or nutrient withdrawal, in the presence of PDGF-BB; cited from earlier work
burn injury [3] = settings: rat burn model; cited from earlier work
burn injury [4] = settings: cited from earlier work

anaphylactoid response [1]: avoid any anaphylacoid response
Molecule: CC[C@H](C)[C@@H]1NC(=O)[C@H](Cc2ccc(O)cc2)NC(=O)[C@H](CCCCN)NC(=O)[C@H](CO)NC(=O)[C@H]([C@@H](C)CC)NC(=O)[C@H](Cc2c[nH]cn2)NC(=O)[C@H](CO)NC(=O)[C@@H]2CCCN2C(=O)[C@H](CCCCN)NC(=O)[C@@H]2CCCN2C(=O)[C@H](CCCNC(=N)N)NC(=O)[C@H](Cc2c[nH]c3ccccc23)NC(=O)[C@H](CCCNC(=N)N)NC(=O)[C@H](CC(C)C)NC1=O [cP12] (HELM PEPTIDE1{H.I.S.K.Y.I.L.R.W.R.P.K.P.S}$PEPTIDE1,PEPTIDE1,1:R1-14:R2$$$V2.0)
percent wounds closed (100% re-epithelialization) at 14 d post-burn (porcine burns; 0.003 mg/kg, 30 min i.v. infusion begun 1 h post-burn): 17 (5) percent
percent wounds closed (100% re-epithelialization) at 14 d post-burn (porcine burns; 0.003 mg/kg, 30 min i.v. infusion begun 4 h post-burn): 37 (3) percent
percent wounds closed (100% re-epithelialization) at 14 d post-burn (porcine burns; 0.01 mg/kg, 30 min i.v. infusion begun 1 h post-burn): 28 (8) percent
percent wounds closed (100% re-epithelialization) at 14 d post-burn (porcine burns; 0.01 mg/kg, 30 min i.v. infusion begun 4 h post-burn): 65 (5) percent
percent wounds closed (100% re-epithelialization) at 14 d post-burn (porcine burns; 0.01 mg/kg, 30 min i.v. infusion begun 8 h post-burn): 34 (5) percent
percent wounds closed (100% re-epithelialization) at 14 d post-burn (porcine burns; 0.01 mg/kg, 30 min i.v. infusion begun 12 h post-burn): 40 (3) percent
percent wounds closed (100% re-epithelialization) at 14 d post-burn (porcine burns; 0.01 mg/kg, 30 min i.v. infusion begun 24 h post-burn): 40 (3) percent
percent wounds closed (100% re-epithelialization) at 14 d post-burn (porcine burns; 0.03 mg/kg, 30 min i.v. infusion begun 1 h post-burn): 8 (8) percent
percent wounds closed (100% re-epithelialization) at 14 d post-burn (porcine burns; 0.03 mg/kg, 30 min i.v. infusion begun 4 h post-burn): 25 (3) percent
percent wounds closed (100% re-epithelialization) at 14 d post-burn (porcine burns; 0.1 mg/kg, 30 min i.v. infusion begun 1 h post-burn): 25 (5) percent
percent wounds closed (100% re-epithelialization) at 14 d post-burn (porcine burns; 0.1 mg/kg, 30 min i.v. infusion begun 4 h post-burn): 50 (2) percent
percent wounds closed (100% re-epithelialization) at 14 d post-burn (porcine burns; 0.1 mg/kg, 30 min i.v. infusion begun 8 h post-burn): 28 (5) percent
percent wounds closed (100% re-epithelialization) at 14 d post-burn (porcine burns; 0.1 mg/kg, 30 min i.v. infusion begun 12 h post-burn): 25 (3) percent
percent wounds closed (100% re-epithelialization) at 14 d post-burn (porcine burns; 0.1 mg/kg, 30 min i.v. infusion begun 24 h post-burn): 17 (3) percent
effectiveness of i.v. treatment by time of administration after wounding (porcine burns; administered 2 to 6 hours after wounding versus one hour or 8 to 12 hours after wounding): more effective

Molecule: P12: 14-residue fibronectin fragment PSHISKYILRWRPK, cryptic within fibronectin's first type III repeat (FNIII1) (a 14-residue peptide that is cryptic within the immunoglobulin sandwich type of beta-pleated sheet of fibronectin′s first type III repeat)
mesenchymal cell growth, proliferation and migration (mesenchymal cell): promotes mesenchymal cell growth, proliferation and migration
protection from cell death [2]: protects
burn injury progression (burn injury [3]): limits burn injury progression
burn injury progression (burn injury [4]; porcine burn model): limits burn injury progression
scarring (burn injury [4]; vertical burn injury progression pig model): mitigates scarring
